Experiments:
[1] = target: T1, human cardiac sodium channel, SCNSA (Homo sapiens, UniProt Q14524); test: Sodium channel whole-cell patch-clamp assay; format: cell-based; conditions: HEK293, HEK-293, protein-free buffer, read-out: Na channel, % inh
T1 construct: expressed in transfected cells; host or cells: HEK-293
Protocol: Whole-cell patch-clamp was used to directly measure inward sodium currents in HEK-293 cells expressing the human cardiac sodium channel, SCNSA. After reach steady-state effect in the presence of drug, rate-dependence was assessed by stimulation at frequencies of 1 Hz and 4 Hz. Experiments were carried out using an aqueous buffer at pH 7.4 and at room temperature. There is no protein in the buffer and drug concentrations reported are nominal free drug levels. Test article was evaluated up to 10 μM (protein-free buffer). […] Data is reported as percent inhibition at a fixed concentration.

[2] = target: T2, human cardiac L-type Ca channel (α1C) and its β subunit (Homo sapiens, UniProt Q13936); test: L-type calcium channel whole-cell patch-clamp assay; format: cell-based; conditions: @ 30 μM, HEK-293, protein-free buffer
T2 construct: expressed in transfected cells
Protocol: In addition to the potential for interaction with the L-type calcium channel, whole-cell patch-clamp was used to directly measure inward calcium currents in HEK-293 cells stably expressing the cloned human cardiac L-type Ca channel (α1C) and its β subunit. Effects of compounds were calculated by measuring inhibition of peak current. Experiments were carried out using an aqueous buffer at pH 7.4 and at room temperature. There is no protein in the buffer and drug concentrations reported are nominal free drug levels. Data is reported as percent inhibition at a fixed concentration.

Protein binding, human = format: in vitro ADME
Protein binding, rabbit = format: in vitro ADME
[3] = Electrocardiography in anesthetized rabbits (rabbit in vivo EP effect)
Protocol: A dose-response study of test compound was conducted in anesthetized rabbits to assess the cardiac electrophysiologic profile established in the cellular ion channel assays.
Experiments were performed in propofol-fentanyl anesthetized closed-chest male rabbits. A body surface electrocardiogram (ECG) and an intra-cardiac His-bundle electrogram were continuously monitored and recorded during the studies, using a PoNeMah system and a Prucka electrophysiological recording system, respectively. Test compound was prepared on the day of study in a vehicle of PEG400:ethanol:water (1:1:1) at a dosing concentration of 30 mg/mL. Test compound (n=3) or vehicle (n=3) was given intravenously over 5 minutes via an infusion pump at incremental doses of 3, 10 and 30 mg/kg. The interval between doses was 10 minutes, allowing for a 5-minute test agent infusion and a 5-minute rest period. Blood was sampled at baseline (pre-drug infusion) and immediately at the end of each infusion. For the 30 mg/kg dose, additional blood samples were taken at 10, 20 and 30 minutes after the end of infusion.
PR interval, QRS duration and QT interval were averaged from a 1 minute ECG recording period at time of blood sampling. QT interval was corrected for heart rate effects using both Fridericia (QTcf) and Van der Water (QTcv) formulae. AH and HV intervals, representing A-V node conduction and His-Purkinje conduction, respectively, were assessed by manual measurements from the His-bundle electrogram. Data were expressed as percent change from pre-drug baseline (mean±SEM) for PR, QRS, AH and HV intervals as well as delta change from the pre-drug infusion baseline (mean±SEM) for QTc intervals. Changes of 10% in PR, QRS, and AH intervals, and 20% in HV interval, as well as >10 ms in QTc interval are considered significant based on experience with the model.

[4] = Human liver microsomal metabolism, Assay Conditions B; format: in vitro ADME
Protocol: Test compound is received as 20 mM in DMSO. Compound is diluted to create a 300 μM acetonitrile (ACN) solution containing 1.5% DMSO, which is then used as a 100× stock for incubation with microsomes. Each compound is tested in duplicate separately in each of three species in the Metabolic Stability-Human, Rat, Mouse assay suite or individual species in the Metabolic Stability-Dog or Metabolic Stability-Monkey suites. Compound, NADPH and liver microsome solutions are combined for incubation in three steps: • 1. 450 μL of liver microsome suspension, protein concentration of 1 mg/mL in 100 mM NaPi, pH 7.4, 6.6 mM MgCl2 buffer, are pre-warmed at 37° C. • 2. […] of 300 μM compound (98.5% CAN, 1.5% DMSO) is added to the same tube. • 3. The reaction is initiated by the addition of 50 μL of pre-warmed 5 mM NADPH solution in 100 mM NaPi, pH 7.4.
Reaction components are mixed well and 150 μL removed to quench/stop solution immediately for the zero-minute time point. Reactions are incubated at 37° C. for 10 minutes and then an additional 150 μL removed from incubation. Aliquots removed are combined with 300 μL ACN which contains 100 μM DMN as a UV standard for detection.
Quenched mixtures are centrifuged at 1500 rpm (˜500×g) in an Allegra X-12 centrifuge, SX4750 rotor (Beckman Coulter Inc., Fullerton, Calif.) for fifteen minutes to pellet denatured microsomes. A volume of 110 μl of supernatant extract, containing the mixture of parent compound and its metabolites, is then transferred to a separate 96-well plate for UV-LC/MS-MS analysis to determine the percent of parent compound that is remaining in the mixture.

[5] = Single-dose pharmacokinetics in rats; format: in vivo; conditions: male, Sprague-Dawley, rat, plasma; for bioavailability: po
Protocol: Serial blood samples were collected for all studies from the jugular vein at various time points post dose (0.17 (or 0.25 for oral), 0.5, 0.75, 1, 2, 4, 6, 8 and 24 h, for example). Plasma samples were analyzed by LC-MS/MS.
Additional studies evaluating suspensions of crystalline drug substance in aqueous medium were performed as described above.

[6] = Single-dose pharmacokinetics in dogs; format: in vivo; conditions: dog
Protocol: Serial blood samples were collected for all studies at various time points post dose (0.17 (or 0.25 for oral), 0.5, 0.75, 1, 2, 4, 6, 8 and 24 h, for example). Plasma samples were analyzed by LC-MS/MS.

T2 sequence (Q13936 whole entry): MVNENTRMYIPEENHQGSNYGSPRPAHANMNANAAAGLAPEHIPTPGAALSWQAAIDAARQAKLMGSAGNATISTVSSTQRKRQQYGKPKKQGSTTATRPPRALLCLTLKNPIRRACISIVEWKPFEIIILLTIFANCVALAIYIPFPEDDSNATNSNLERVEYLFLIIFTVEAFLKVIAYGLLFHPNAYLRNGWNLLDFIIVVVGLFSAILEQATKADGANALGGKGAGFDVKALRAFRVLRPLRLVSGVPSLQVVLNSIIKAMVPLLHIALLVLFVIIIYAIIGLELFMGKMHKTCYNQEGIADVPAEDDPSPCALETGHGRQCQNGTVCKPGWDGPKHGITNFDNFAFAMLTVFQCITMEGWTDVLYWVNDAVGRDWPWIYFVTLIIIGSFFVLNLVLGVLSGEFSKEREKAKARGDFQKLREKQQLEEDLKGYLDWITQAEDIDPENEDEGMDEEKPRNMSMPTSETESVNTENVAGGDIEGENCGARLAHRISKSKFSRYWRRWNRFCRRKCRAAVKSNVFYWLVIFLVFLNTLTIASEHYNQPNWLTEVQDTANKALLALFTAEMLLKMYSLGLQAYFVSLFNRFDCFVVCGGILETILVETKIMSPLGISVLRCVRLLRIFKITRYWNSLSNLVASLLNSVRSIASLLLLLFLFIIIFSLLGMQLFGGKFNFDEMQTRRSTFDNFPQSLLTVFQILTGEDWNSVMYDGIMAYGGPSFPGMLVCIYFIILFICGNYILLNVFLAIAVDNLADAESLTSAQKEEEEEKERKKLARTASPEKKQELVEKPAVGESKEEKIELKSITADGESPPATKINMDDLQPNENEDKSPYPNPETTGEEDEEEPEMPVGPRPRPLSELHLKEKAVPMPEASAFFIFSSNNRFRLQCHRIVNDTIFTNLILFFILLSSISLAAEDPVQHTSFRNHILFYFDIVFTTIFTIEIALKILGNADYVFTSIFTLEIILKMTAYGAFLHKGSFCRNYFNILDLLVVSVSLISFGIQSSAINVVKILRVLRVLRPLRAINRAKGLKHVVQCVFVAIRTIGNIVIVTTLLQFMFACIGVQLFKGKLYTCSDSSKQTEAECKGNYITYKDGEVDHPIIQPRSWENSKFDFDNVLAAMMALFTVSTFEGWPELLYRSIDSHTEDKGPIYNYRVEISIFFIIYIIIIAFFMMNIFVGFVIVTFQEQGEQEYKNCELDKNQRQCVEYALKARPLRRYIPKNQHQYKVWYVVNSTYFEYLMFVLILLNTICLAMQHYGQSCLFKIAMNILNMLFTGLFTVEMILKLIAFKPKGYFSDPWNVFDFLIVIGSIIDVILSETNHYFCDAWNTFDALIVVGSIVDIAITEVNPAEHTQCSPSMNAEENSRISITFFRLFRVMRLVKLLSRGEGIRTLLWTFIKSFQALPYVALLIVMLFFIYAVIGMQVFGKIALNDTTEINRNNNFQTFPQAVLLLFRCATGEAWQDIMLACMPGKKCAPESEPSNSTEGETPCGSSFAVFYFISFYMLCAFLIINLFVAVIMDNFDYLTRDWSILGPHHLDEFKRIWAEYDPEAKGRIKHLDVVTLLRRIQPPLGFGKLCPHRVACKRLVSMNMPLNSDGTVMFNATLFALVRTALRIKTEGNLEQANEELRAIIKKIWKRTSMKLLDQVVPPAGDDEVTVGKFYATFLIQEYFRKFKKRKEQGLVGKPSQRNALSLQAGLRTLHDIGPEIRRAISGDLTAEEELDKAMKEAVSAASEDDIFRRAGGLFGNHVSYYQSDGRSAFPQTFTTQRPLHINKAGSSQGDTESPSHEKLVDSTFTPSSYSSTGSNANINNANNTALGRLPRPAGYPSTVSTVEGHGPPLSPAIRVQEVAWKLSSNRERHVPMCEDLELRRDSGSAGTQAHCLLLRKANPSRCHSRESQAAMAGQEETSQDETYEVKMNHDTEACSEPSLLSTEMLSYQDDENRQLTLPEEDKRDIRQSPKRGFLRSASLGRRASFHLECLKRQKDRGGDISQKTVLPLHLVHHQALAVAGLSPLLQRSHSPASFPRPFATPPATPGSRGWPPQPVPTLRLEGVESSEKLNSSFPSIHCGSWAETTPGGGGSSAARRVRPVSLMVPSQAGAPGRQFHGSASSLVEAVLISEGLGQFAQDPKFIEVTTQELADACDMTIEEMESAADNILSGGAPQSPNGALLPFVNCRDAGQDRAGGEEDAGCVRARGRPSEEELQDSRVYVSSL
T2 sequence (Q08289 whole entry partner): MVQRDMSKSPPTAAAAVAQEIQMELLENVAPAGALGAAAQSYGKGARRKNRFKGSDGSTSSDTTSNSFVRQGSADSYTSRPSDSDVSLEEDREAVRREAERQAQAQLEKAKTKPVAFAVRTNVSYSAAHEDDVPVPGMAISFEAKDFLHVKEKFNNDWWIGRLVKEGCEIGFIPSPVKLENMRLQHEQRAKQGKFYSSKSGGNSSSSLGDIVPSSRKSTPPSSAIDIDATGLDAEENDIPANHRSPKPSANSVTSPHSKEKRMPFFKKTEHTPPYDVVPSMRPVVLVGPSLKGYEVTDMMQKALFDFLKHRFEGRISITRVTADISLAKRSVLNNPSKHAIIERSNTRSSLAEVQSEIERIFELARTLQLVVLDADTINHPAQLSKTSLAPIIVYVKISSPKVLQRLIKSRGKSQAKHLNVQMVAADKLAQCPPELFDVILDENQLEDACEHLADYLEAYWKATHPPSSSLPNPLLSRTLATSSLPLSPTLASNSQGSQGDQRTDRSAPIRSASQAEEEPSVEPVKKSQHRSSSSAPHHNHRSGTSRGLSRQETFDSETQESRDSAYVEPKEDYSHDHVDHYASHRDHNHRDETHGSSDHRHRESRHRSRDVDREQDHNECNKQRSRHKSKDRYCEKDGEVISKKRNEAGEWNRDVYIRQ
T1 sequence (Q14524 whole entry): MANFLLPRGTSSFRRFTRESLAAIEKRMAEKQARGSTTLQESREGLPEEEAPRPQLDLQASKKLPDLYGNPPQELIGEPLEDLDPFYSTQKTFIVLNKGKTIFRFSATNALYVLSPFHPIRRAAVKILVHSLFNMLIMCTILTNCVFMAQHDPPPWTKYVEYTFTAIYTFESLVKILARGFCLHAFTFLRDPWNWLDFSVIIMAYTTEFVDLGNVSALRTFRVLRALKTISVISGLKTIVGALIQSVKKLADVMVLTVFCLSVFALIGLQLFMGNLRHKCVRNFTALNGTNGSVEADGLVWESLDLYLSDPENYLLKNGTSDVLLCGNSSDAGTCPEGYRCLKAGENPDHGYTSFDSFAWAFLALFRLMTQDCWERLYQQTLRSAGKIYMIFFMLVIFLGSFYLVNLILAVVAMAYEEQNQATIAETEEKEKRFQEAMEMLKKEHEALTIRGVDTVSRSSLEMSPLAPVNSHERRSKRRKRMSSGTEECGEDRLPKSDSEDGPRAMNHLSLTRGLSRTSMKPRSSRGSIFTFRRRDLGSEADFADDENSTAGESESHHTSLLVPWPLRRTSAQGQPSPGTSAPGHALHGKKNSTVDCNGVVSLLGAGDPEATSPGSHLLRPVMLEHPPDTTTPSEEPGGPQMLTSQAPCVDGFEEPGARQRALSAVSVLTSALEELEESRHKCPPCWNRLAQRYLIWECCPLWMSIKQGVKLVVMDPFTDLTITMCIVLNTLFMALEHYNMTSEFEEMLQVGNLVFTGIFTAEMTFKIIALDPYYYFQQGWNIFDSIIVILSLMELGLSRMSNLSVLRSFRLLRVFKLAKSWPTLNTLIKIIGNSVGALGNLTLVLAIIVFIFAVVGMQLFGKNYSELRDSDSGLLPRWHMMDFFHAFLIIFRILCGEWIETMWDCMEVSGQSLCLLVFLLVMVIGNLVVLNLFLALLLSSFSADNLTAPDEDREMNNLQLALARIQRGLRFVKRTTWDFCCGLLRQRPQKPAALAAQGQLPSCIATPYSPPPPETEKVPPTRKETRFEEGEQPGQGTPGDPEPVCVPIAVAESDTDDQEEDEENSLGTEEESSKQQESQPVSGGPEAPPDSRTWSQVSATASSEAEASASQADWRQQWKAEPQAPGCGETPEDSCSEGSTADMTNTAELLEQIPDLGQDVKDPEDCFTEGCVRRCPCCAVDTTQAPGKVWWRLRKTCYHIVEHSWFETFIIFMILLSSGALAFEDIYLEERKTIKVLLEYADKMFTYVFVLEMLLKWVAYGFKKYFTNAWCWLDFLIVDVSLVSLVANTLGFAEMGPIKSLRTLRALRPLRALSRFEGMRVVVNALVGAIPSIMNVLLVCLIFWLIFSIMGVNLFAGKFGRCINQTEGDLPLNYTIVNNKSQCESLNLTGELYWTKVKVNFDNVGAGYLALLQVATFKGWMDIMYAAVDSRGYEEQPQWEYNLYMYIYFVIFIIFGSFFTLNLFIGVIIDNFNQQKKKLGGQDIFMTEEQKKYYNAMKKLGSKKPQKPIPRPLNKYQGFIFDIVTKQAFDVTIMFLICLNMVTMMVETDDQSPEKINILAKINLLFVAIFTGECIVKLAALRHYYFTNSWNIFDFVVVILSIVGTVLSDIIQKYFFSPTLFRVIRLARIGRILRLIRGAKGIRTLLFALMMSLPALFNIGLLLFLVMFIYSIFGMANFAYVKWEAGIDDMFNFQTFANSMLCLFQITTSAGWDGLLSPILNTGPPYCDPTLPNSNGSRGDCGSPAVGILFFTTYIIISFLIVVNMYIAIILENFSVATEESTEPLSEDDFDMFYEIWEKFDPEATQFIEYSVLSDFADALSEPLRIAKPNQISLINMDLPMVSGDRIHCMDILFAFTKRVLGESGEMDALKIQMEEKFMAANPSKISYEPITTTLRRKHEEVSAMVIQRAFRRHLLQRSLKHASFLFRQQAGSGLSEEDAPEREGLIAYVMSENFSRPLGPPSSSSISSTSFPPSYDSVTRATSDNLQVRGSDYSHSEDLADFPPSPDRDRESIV

CC(C)[C@@H](NC(=O)[C@@H]1CCC(F)(F)C1)C(=O)N1CC[C@](O)(c2ccc(Cl)cc2)[C@@](C)(O)C1 [Compound I, (R)—N—((R)-1-((3S,4S)-4-(4-chlorophenyl)-3,4-dihydroxy-3-methylpiperidin-1-yl)-3-methyl-1-oxobutan-2-yl)-3,3-difluorocyclopentanecarboxamide]
inhibition at 10 µM [1]: 21% | Ca channel, % inh [2]: 29% @ 30 μM | fraction unbound (Protein binding, human): 0.32 | fraction unbound (Protein binding, rabbit): 0.46 | Cmax: Free drug (at NOEL dose) ([3]; at NOEL dose, free drug): 52 µM | Cmax: Free drug (at QT effect dose) ([3]; at QT effect dose, free drug): 52 µM | NOEL dose ([3]; i.v. infusion): 30 mg/kg | QT effect Dose ([3]; i.v. infusion 3, 10, 30 mg/kg): > 30 mg/kg | QTcf, delta ([3]; i.v. infusion, change from pre-drug baseline): No effect | Cmax ([3]; male, blood, iv, at QT effect dose, total drug): 96 µM | Human Liver Microsomal Metabolism % remaining (Assay Conditions B) ([4]; 3 μM compound, 10 minutes, 37° C.): 96% (B) | % of compound remaining in the human liver microsome metabolism assay ([4]; assay conditions not given): 100% | clearance ([5]; intravenous): 26 mL/min/kg | bioavailability ([5]; crystalline suspension in aqueous medium, read-out: Relative bioavailability when dosed as a crystalline suspension): 84% | bioavailability ([5]; oral solution, read-out: Rat oral bioavailability when dosed as solution): 43% | decrease of in vivo clearance (CL) relative to the compared compounds [6]: 8-13 fold | clearance ([6]; male, beagle, plasma, intravenous): 0.6 mL/min/kg | bioavailability ([6]; male, beagle, plasma, oral solution, read-out: dog oral bioavailability when dosed as solution): 82%
